According to publication PMC11129182, “Development of Inhibitors, Probes, and PROTAC Provides a Complete Toolbox to Study PARK7 in the Living Cell” (Journal of Medicinal Chemistry, 2024):
Like-named read-outs stand apart in the source and are kept apart here.

Target: T1, PARK7 (Homo sapiens, UniProt Q99497)
T1 sequence (Q99497 1-189): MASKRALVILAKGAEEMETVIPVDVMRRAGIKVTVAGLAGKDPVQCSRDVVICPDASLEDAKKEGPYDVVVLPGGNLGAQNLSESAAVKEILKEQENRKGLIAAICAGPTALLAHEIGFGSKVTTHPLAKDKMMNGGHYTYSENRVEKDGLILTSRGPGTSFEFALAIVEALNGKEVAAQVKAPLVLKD
Assay: High-throughput screen of the crude compound library, PARK7 fluorescence polarization (FP) assay with FP reagent JYQ-107
Format: biochemical
Conditions: read-out: HTS FP assay %Inhibition (1.25 µM)

[1] = 1.25 µM, crude compound library, FP reagent JYQ-107

| Structure (SMILES) | inhibition at 1.25 µM [1] | inhibition at 1.25 µM |
| --- | --- | --- |
| N#CN1CC[C@@H](C(=O)Nc2nc3c(s2)CN(C(=O)c2cnc(-c4cccnc4)s2)CC3)C1 [compound 368] | 69.2% | – |
| N#CN1CC[C@@H](C(=O)Nc2nc3c(s2)CN(C(=O)C2CC(=O)N(OCc4ccccc4)C2)CC3)C1 (stereo partly shown) [compound 370] | 72.4% | – |
| N#CN1CC[C@@H](C(=O)Nc2nc3c(s2)CN(C(=O)CC2CCN(c4ccc(Cl)nn4)CC2)CC3)C1 [compound 371] | 74.8% | – |
| N#CN1CC[C@@H](C(=O)Nc2nc3c(s2)CN(C(=O)c2cnn(CC4CCC4)c2)CC3)C1 [compound 372] | 81.6% | – |
| N#CN1CC[C@@H](C(=O)Nc2nc3c(s2)CN(C(=O)Cc2csc(C4CC4)n2)CC3)C1 [compound 373] | 81.4% | – |
| N#CN1CC[C@@H](C(=O)Nc2nc3c(s2)CN(C(=O)c2cc(C4CCC4)on2)CC3)C1 [compound 374] | 84% | – |
| N#CN1CC[C@@H](C(=O)Nc2nc3c(s2)CN(C(=O)C(c2ccccc2)n2cccc2)CC3)C1 (stereo partly shown) [compound 375] | 68.5% | – |
| N#CN1CC[C@@H](C(=O)Nc2nc3c(s2)CN(C(=O)c2nc(N4CCOCC4)ncc2Cl)CC3)C1 [compound 376] | 70.8% | – |
| N#CN1CC[C@@H](C(=O)Nc2nc3c(s2)CN(C(=O)C2CCCCN2S(=O)(=O)c2ccc(Br)s2)CC3)C1 (stereo partly shown) [compound 377] | 76.2% | – |
| CC(C)c1cc(C(=O)N2CCc3nc(NC(=O)[C@@H]4CCN(C#N)C4)sc3C2)n(-c2ccccc2)n1 [compound 378] | 87% | – |
| N#CN1CC[C@@H](C(=O)Nc2nc3c(s2)CN(C(=O)c2ccc(-c4ncon4)cc2)CC3)C1 [compound 379] | 75.2% | – |
| N#CN1CC[C@@H](C(=O)Nc2nc3c(s2)CN(C(=O)C(CCc2ccccc2)c2ccccc2)CC3)C1 (stereo partly shown) [compound 380] | 80.3% | – |
| COC1CC(C(=O)N2CCc3nc(NC(=O)[C@@H]4CCN(C#N)C4)sc3C2)N(C(=O)OCc2ccccc2)C1 (stereo partly shown) [compound 382] | 75.9% | – |
| Cc1cccc(COc2cccc(C(=O)N3CCc4nc(NC(=O)[C@@H]5CCN(C#N)C5)sc4C3)c2)c1 [compound 383] | 87.5% | – |
| Cn1cc(-c2cc(C(=O)N3CCc4nc(NC(=O)[C@@H]5CCN(C#N)C5)sc4C3)no2)cn1 [compound 384] | 83% | – |
| N#CN1CC[C@@H](C(=O)Nc2nc3c(s2)CN(C(=O)Cc2ccc(NS(=O)(=O)c4cccc(C(F)(F)F)c4)cc2)CC3)C1 [compound 385] | 81% | – |
| N#CN1CC[C@@H](C(=O)Nc2nc3c(s2)CN(C(=O)c2ccc(S(=O)(=O)N4CCCCCC4)cc2)CC3)C1 [compound 387] | 74.8% | – |
| CSCCC(NC(C)=O)C(=O)N1CCc2nc(NC(=O)[C@@H]3CCN(C#N)C3)sc2C1 (stereo partly shown) [compound 388] | -53.2% | – |
| CC(=O)NCC(=O)N1CCc2nc(NC(=O)[C@@H]3CCN(C#N)C3)sc2C1 [compound 389] | 71.7% | – |
| CC(C)CC(=O)N1CCc2nc(NC(=O)[C@@H]3CCN(C#N)C3)sc2C1 [compound 390] | 67.9% | – |
| N#CN1CC[C@@H](C(=O)Nc2nc3c(s2)CN(C(=O)c2ccccc2I)CC3)C1 [compound 391] | 73.6% | – |
| CC(C)C(=O)N1CCc2nc(NC(=O)[C@@H]3CCN(C#N)C3)sc2C1 [compound 392] | 63% | – |
| Cc1cc(OCC(=O)N2CCc3nc(NC(=O)[C@@H]4CCN(C#N)C4)sc3C2)ccc1C(C)C [compound 393] | 80.3% | – |

| Structure (SMILES) | inhibition at 1.25 µM [1] | inhibition at 1.25 µM |
| --- | --- | --- |
| CCCC(=O)N1CCc2nc(NC(=O)[C@@H]3CCN(C#N)C3)sc2C1 [compound 394] | 70.5% | – |
| COc1ccc(C)cc1C(=O)N1CCc2nc(NC(=O)[C@@H]3CCN(C#N)C3)sc2C1 [compound 395] | 84.8% | – |
| CC(C)(C)OC(=O)Nc1ccccc1C(=O)N1CCc2nc(NC(=O)[C@@H]3CCN(C#N)C3)sc2C1 [compound 396] | 65.2% | – |
| Cc1cncc(C(=O)N2CCc3nc(NC(=O)[C@@H]4CCN(C#N)C4)sc3C2)c1 [compound 397] | 68.5% | – |
| N#CN1CC[C@@H](C(=O)Nc2nc3c(s2)CN(C(=O)CCN2C(=O)C=CC2=O)CC3)C1 [compound 398] | 65.7% | – |
| N#CN1CC[C@@H](C(=O)Nc2nc3c(s2)CN(C(=O)Cc2ccc([N+](=O)[O-])cc2)CC3)C1 [compound 399] | 58.2% | – |
| N#CN1CC[C@@H](C(=O)Nc2nc3c(s2)CN(C(=O)Cc2ccccc2[N+](=O)[O-])CC3)C1 [compound 400] | 80.8% | – |
| C#CCCC(=O)N1CCc2nc(NC(=O)[C@@H]3CCN(C#N)C3)sc2C1 [compound 401] | 82.4% | – |
| N#CN1CC[C@@H](C(=O)Nc2nc3c(s2)CN(C(=O)c2cnccn2)CC3)C1 [compound 402] | 85.1% | – |
| N#CN1CC[C@@H](C(=O)Nc2nc3c(s2)CN(C(=O)c2ccc(/N=N/c4ccccc4)cc2)CC3)C1 [compound 403] | 84.3% | – |
| N#CN1CC[C@@H](C(=O)Nc2nc3c(s2)CN(C(=O)Cc2ccncc2)CC3)C1 [compound 404] | 58.2% | – |
| Cn1c(=O)c2c(ncn2CC(=O)N2CCc3nc(NC(=O)[C@@H]4CCN(C#N)C4)sc3C2)n(C)c1=O [compound 405] | 67.9% | – |
| N#CN1CC[C@@H](C(=O)Nc2nc3c(s2)CN(C(=O)CNC(=O)c2ccccc2)CC3)C1 [compound 406] | 82.4% | – |
| N#CN1CC[C@@H](C(=O)Nc2nc3c(s2)CN(C(=O)c2ccc(B(O)O)cc2)CC3)C1 [compound 407] | 58.7% | – |
| CC(C)(C)OC(=O)NCC(=O)N1CCc2nc(NC(=O)[C@@H]3CCN(C#N)C3)sc2C1 [compound 408] | 75.4% | – |
| CC(C)(C)OC(=O)N[C@@H](Cc1cn(-c2ccc([N+](=O)[O-])cc2[N+](=O)[O-])cn1)C(=O)N1CCc2nc(NC(=O)[C@@H]3CCN(C#N)C3)sc2C1 [compound 409] | – | 75.4% |
| N#CN1CC[C@@H](C(=O)Nc2nc3c(s2)CN(C(=O)CCCCBr)CC3)C1 [compound 410] | 47.7% | – |
| N#CN1CC[C@@H](C(=O)Nc2nc3c(s2)CN(C(=O)C(Br)c2ccccc2)CC3)C1 (stereo partly shown) [compound 411] | 41.8% | – |
| N#CN1CC[C@@H](C(=O)Nc2nc3c(s2)CN(C(=O)CCCCCBr)CC3)C1 [compound 412] | 52.5% | – |
| N#CN1CC[C@@H](C(=O)Nc2nc3c(s2)CN(C(=O)c2ccccc2CCc2ccccc2)CC3)C1 [compound 413] | 79.7% | – |
| N#CN1CC[C@@H](C(=O)Nc2nc3c(s2)CN(C(=O)c2ccc(CBr)cc2)CC3)C1 [compound 414] | -19.6% | – |
| C#CCCCC(=O)N1CCc2nc(NC(=O)[C@@H]3CCN(C#N)C3)sc2C1 [compound 416] | 75.5% | – |
| N#CN1CC[C@@H](C(=O)Nc2nc3c(s2)CN(C(=O)c2nccc4ccccc24)CC3)C1 [compound 417] | 82.2% | – |

| Structure (SMILES) | inhibition at 1.25 µM [1] | inhibition at 1.25 µM |
| --- | --- | --- |
| Cc1c(Br)cccc1C(=O)N1CCc2nc(NC(=O)[C@@H]3CCN(C#N)C3)sc2C1 [compound 418] | 81% | – |
| CC(=O)CCCCC(=O)N1CCc2nc(NC(=O)[C@@H]3CCN(C#N)C3)sc2C1 [compound 419] | 74% | – |
| Cc1ccc(Br)c(C(=O)N2CCc3nc(NC(=O)[C@@H]4CCN(C#N)C4)sc3C2)c1 [compound 420] | 83.3% | – |
| N#CN1CC[C@@H](C(=O)Nc2nc3c(s2)CN(C(=O)c2sccc2Br)CC3)C1 [compound 421] | 79.7% | – |
| N#CN1CC[C@@H](C(=O)Nc2nc3c(s2)CN(C(=O)c2ccc(NNC(=O)OCC4c5ccccc5-c5ccccc54)cc2)CC3)C1 [compound 422] | 78.9% | – |
| N#CN1CC[C@@H](C(=O)Nc2nc3c(s2)CN(C(=O)Cn2cc(C=O)c4ccccc42)CC3)C1 [compound 423] | – | 72.5% |
| N#CN1CC[C@@H](C(=O)Nc2nc3c(s2)CN(C(=O)c2ccc(C=O)cc2)CC3)C1 [compound 424] | 76.8% | – |
| N#CN1CC[C@@H](C(=O)Nc2nc3c(s2)CN(C(=O)c2cccc4c2-c2ccccc2C4)CC3)C1 [compound 425] | 84% | – |
| N#CN1CC[C@@H](C(=O)Nc2nc3c(s2)CN(C(=O)c2cc(C=O)ccc2O)CC3)C1 [compound 427] | 63.9% | – |
| CCCN(CCC)S(=O)(=O)c1ccc(C(=O)N2CCc3nc(NC(=O)[C@@H]4CCN(C#N)C4)sc3C2)cc1 [compound 428] | 85.1% | – |
| CN1C(=O)C[C@@H](C(=O)N2CCc3nc(NC(=O)[C@@H]4CCN(C#N)C4)sc3C2)[C@@H]1c1cccnc1 [compound 429] | 59.5% | – |
| N#CN1CC[C@@H](C(=O)Nc2nc3c(s2)CN(C(=O)CCc2ccccc2Br)CC3)C1 [compound 430] | 87.5% | – |
| CC(=O)CCCC(=O)N1CCc2nc(NC(=O)[C@@H]3CCN(C#N)C3)sc2C1 [compound 431] | 72.4% | – |
| N#CN1CC[C@@H](C(=O)Nc2nc3c(s2)CN(C(=O)c2ccccc2C=O)CC3)C1 [compound 432] | 57.9% | – |
| N#CN1CC[C@@H](C(=O)Nc2nc3c(s2)CN(C(=O)c2cccc(C=O)c2)CC3)C1 [compound 433] | 81.4% | – |
| CCCCNc1ccc(C(=O)N2CCc3nc(NC(=O)[C@@H]4CCN(C#N)C4)sc3C2)cc1 [compound 434] | 81.3% | – |
| N#CN1CC[C@@H](C(=O)Nc2nc3c(s2)CN(C(=O)CCC2CCCCC2)CC3)C1 [compound 435] | 78.3% | – |
| N#CN1CC[C@@H](C(=O)Nc2nc3c(s2)CN(C(=O)CN2C(=O)c4ccccc4C2=O)CC3)C1 [compound 436] | 72.4% | – |
| COc1cc(CC(=O)N2CCc3nc(NC(=O)[C@@H]4CCN(C#N)C4)sc3C2)ccc1O [compound 437] | 73.6% | – |
| N#CN1CC[C@@H](C(=O)Nc2nc3c(s2)CN(C(=O)CCc2ccc(O)cc2)CC3)C1 [compound 438] | 74.4% | – |
| CNc1ccc(C(=O)N2CCc3nc(NC(=O)[C@@H]4CCN(C#N)C4)sc3C2)cc1 [compound 439] | 73.3% | – |
